Assay results taken from patent US20230059136A1, “THE COMPOUNDS AND COMPOSITIONS FOR TREATING CONDITIONS ASSOCIATED WITH NLRP ACTIVITY” (Novartis AG, priority 2018, published 2023).
Where two headings read alike, the source gives them in different places.

Test system: IL-1β production in PMA-differentiated THP-1 cells
Test: IL-1β production in PMA-differentiated THP-1 cells stimulated with gramicidin (hTHP-1 assay containing 2% fetal bovine serum)
Type: cell-based, human
Conditions: 2% fetal bovine serum, read-out: hTHP-1 IC50 (Average IC50 of compounds in hTHP-1 assay)
Method in brief: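 THP-1 cells were differentiated with PMA 20 ng/ml for 16-18 h, then plated at 50,000 cells/well in RPMI with 2% FBS. They were preincubated 1 h with compound (100–0.0017 μM final, 0.37% DMSO), then stimulated with gramicidin 5 μM for 2 h. Supernatant IL-1β was measured by HTRF.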

[1] = Homo sapiens, THP-1, Table B1, cells printed as numeric bound
[2] = Homo sapiens, THP-1, Table B1, class symbols

Row | SMILES | IC50 (Table B1, class symbols) [µM] | IC50 [1] [µM] | other results
1 | CC(C)c1cc2c(c(C(C)C)c1CC(=O)N=S(N)(=O)c1sc(C(C)(C)O)cc1F)COC2 (single isomer, unassigned) [Example 321, (R) or (S)-N-(amino (3-fluoro-5-(2-hydroxypropan-2-yl)thiophen-2-yl)(oxo)-λ^6-sulfaneylidene)-2-(4,6-diisopropyl-1,3-dihydroisobenzofuran-5-yl)acetamide] | 0.04 to 0.2 | – | –
2 | CC(C)c1cc2c(c(C(C)C)c1CC(=O)N=S(N)(=O)c1sc(C(C)(C)O)cc1F)COC2 (single isomer, unassigned) [Example 322, (S) or (R)-N-(amino (3-fluoro-5-(2-hydroxypropan-2-yl)thiophen-2-yl)(oxo)-λ^6-sulfaneylidene)-2-(4,6-diisopropyl-1,3-dihydroisobenzofuran-5-yl)acetamide] | 5 to 30 | – | –
3 | CNCc1ccc(S(N)(=O)=NC(=O)Cc2c(C(C)C)cc(C(F)F)nc2C(C)C)cc1 (single isomer, unassigned) [Example 323, (S) or (R)-N-(amino(4-((methylamino)methyl)phenyl)(oxo)-λ^6-sulfaneylidene)-2-(6-(difluoromethyl)-2,4-diisopropylpyridin-3-yl)acetamide] | – | > 30 | –
4 | CNCc1ccc(S(N)(=O)=NC(=O)Cc2c(C(C)C)cc(C(F)F)nc2C(C)C)cc1 (single isomer, unassigned) [Example 324, (R) or (S)-N-(amino (4-((methylamino)methyl)phenyl)(oxo)-λ^6-sulfaneylidene)-2-(6-(difluoromethyl)-2,4-diisopropylpyridin-3-yl)acetamide] | – | – | IC50 [2]: 5 to 30 µM
5 | CC(C)c1cc(C(F)F)cc(C(C)C)c1CC(=O)N=S(N)(=O)c1ccc(CN(C)C)cc1 (single isomer, unassigned) [Example 325, (R) or (S)-N-(amino (4-((dimethylamino)methyl)phenyl)(oxo)-λ6-sulfaneylidene)-2-(4-(difluoromethyl)-2,6-diisopropylphenyl) acetamide] | 0.2 to 1 | – | –
6 | CC(C)c1cc(C(F)F)cc(C(C)C)c1CC(=O)N=S(N)(=O)c1ccc(CN(C)C)cc1 (single isomer, unassigned) [Example 326, (S) or (R)-N-(amino(4-((dimethylamino)methyl)phenyl)(oxo)-λ^6-sulfaneylidene)-2-(4-(difluoromethyl)-2,6-diisopropylphenyl) acetamide] | 5 to 30 | – | –
7 | CC(C)c1cc(C(F)F)cc(C(C)C)c1CC(=O)N=S(N)(=O)c1ccc(CN(C)C)nc1 (single isomer, unassigned) [Example 327, (S) or (R)-N-(amino(6-((dimethylamino)methyl)pyridin-3-yl)(oxo)-λ^6-sulfaneylidene)-2-(4-(difluoromethyl)-2,6-diisopropylphenyl) acetamide] | – | > 30 | –
8 | CC(C)c1cc(C(F)F)cc(C(C)C)c1CC(=O)N=S(N)(=O)c1ccc(CN(C)C)nc1 (single isomer, unassigned) [Example 328, (R) or (S)-N-(amino(6-((dimethylamino)methyl)pyridin-3-yl)(oxo)-λ^6-sulfaneylidene)-2-(4-(difluoromethyl)-2,6-diisopropylphenyl) acetamide] | – | – | IC50 [2]: 1 to 5 µM
9 | CNCc1ccc(S(N)(=O)=NC(=O)Cc2c(C(C)C)cc(C(F)F)cc2C(C)C)cc1 (single isomer, unassigned) [Example 329, (S) or (R)-N-(amino(4-((methylamino)methyl)phenyl)(oxo)-λ^6-sulfaneylidene)-2-(4-(difluoromethyl)-2,6-diisopropylphenyl) acetamide] | – | > 30 | –
10 | CNCc1ccc(S(N)(=O)=NC(=O)Cc2c(C(C)C)cc(C(F)F)cc2C(C)C)cc1 (single isomer, unassigned) [Example 330, (R) or (S)-N-(amino(4-((methylamino)methyl)phenyl)(oxo)-λ^6-sulfaneylidene)-2-(4-(difluoromethyl)-2,6-diisopropylphenyl) acetamide] | – | – | IC50 [2]: 1 to 5 µM
11 | CC(C)c1cc(C(F)F)nc(C(C)C)c1CC(=O)N=S(N)(=O)c1ccc(CN(C)C)cc1 (single isomer, unassigned) [Example 331, (R) or (S)-N-(amino(4-((dimethylamino)methyl)phenyl)(oxo)-λ^6-sulfaneylidene)-2-(6-(difluoromethyl)-2,4-diisopropylpyridin-3-yl)acetamide] | – | – | IC50 [2]: 1 to 5 µM
12 | CC(C)c1cc(C(F)F)nc(C(C)C)c1CC(=O)N=S(N)(=O)c1ccc(CN(C)C)cc1 (single isomer, unassigned) [Example 332, (S) or (R)-N-(amino(4-((dimethylamino)methyl)phenyl)(oxo)-λ^6-sulfaneylidene)-2-(6-(difluoromethyl)-2,4-diisopropylpyridin-3-yl)acetamide] | – | > 30 | –
13 | CC(C)c1cc(C#N)c(F)c(C(C)C)c1CC(=O)N=S(N)(=O)c1cnc(C(C)(O)CO)s1 (single isomer, unassigned) [Example 333] | 0.04 to 0.2 | – | –
14 | CC(C)c1cc(C#N)c(F)c(C(C)C)c1CC(=O)N=S(N)(=O)c1cnc(C(C)(O)CO)s1 (single isomer, unassigned) [Example 334, (S, S) or (R, S)-N-(amino(2-(1,2-dihydroxypropan-2-yl)thiazol-5-yl)(oxo)-λ^6-sulfaneylidene)-2-(4-cyano-3-fluoro-2,6-diisopropylphenyl) acetamide] | 5 to 30 | – | –
15 | CC(C)c1cc(C#N)c(F)c(C(C)C)c1CC(=O)N=S(N)(=O)c1cnc(C(C)(O)CO)s1 (single isomer, unassigned) [Example 335, (R, S) or (S, S)-N-(amino(2-(1,2-dihydroxypropan-2-yl)thiazol-5-yl)(oxo)-λ^6-sulfaneylidene)-2-(4-cyano-3-fluoro-2,6-diisopropylphenyl) acetamide] | – | > 30 | –
16 | CC(C)c1cc(C#N)c(F)c(C(C)C)c1CC(=O)N=S(N)(=O)c1cnc(C(C)(O)CO)s1 (single isomer, unassigned) [Example 336, (R, R) or (S, R)-N-(amino(2-(1,2-dihydroxypropan-2-yl)thiazol-5-yl)(oxo)-λ^6-sulfaneylidene)-2-(4-cyano-3-fluoro-2,6-diisopropylphenyl) acetamide] | 0.2 to 1 | – | –
17 | CC(C)c1cc(C#N)c(F)c(C(C)C)c1CC(=O)N=S(N)(=O)c1cnc(C(C)(O)CO)s1 (single isomer, unassigned) [Example 337, (S, R) or (R, R)-N-(amino(2-(1,2-dihydroxypropan-2-yl)thiazol-5-yl)(oxo)-λ^6-sulfaneylidene)-2-(4-cyano-3-fluoro-2,6-diisopropylphenyl) acetamide] | 0.008 to 0.04 | – | –
18 | CC(C)c1cc2c(c(C(C)C)c1CC(=O)N=S(N)(=O)c1cnc(C(C)(O)CO)s1)COC2 (single isomer, unassigned) [Example 338] | – | – | IC50 [2]: 0.2 to 1 µM
19 | CC(C)c1cc2c(c(C(C)C)c1CC(=O)N=S(N)(=O)c1cnc(C(C)(O)CO)s1)COC2 (single isomer, unassigned) [Example 339, (R, S) or (S, S)-N-(amino(2-(1,2-dihydroxypropan-2-yl)thiazol-5-yl)(oxo)-λ^6-sulfaneylidene)-2-(4,6-diisopropyl-1,3-dihydroisobenzofuran-5-yl)acetamide] | – | > 30 | –
